Reference: patent US10081641B2, “Pesticidally active heterocyclic derivatives with sulphur containing substituents” (Syngenta Participations AG, priority 2014, dated 2018)

Key:
Assay type in all cases: in vivo
[1] = tested on: Diabrotica Balteata (Corn Root Worm); assay: Example B4: Diabrotica balteata, sprayed maize sprouts; settings: 96 h, application rate of 200 ppm, L2 larvae, 4 days after infestation, read-out: effect in at least one of the two categories (mortality or growth inhibition)
Method: Example B4: Diabrotica Balteata (Corn Root Worm)
Maize sprouts, placed on an agar layer in 24-well microtiter plates were treated with aqueous test solutions prepared from 10′000 ppm DMSO stock solutions by spraying. After drying, the plates were infested with L2 larvae (6 to 10 per well). The samples were assessed for mortality and growth inhibition in comparison to untreated samples 4 days after infestation.

[2] = tested on: Myzus persicae (Green Peach Aphid); assay: Example B6: Myzus persicae, roots of pea seedlings in test solution; settings: 144 h, test rate of 24 ppm, pea seedling roots in test solution, 6 days
Method: Example B6: Myzus persicae (Green Peach Aphid)
Roots of pea seedlings infested with an aphid population of mixed ages were placed directly in the aqueous test solutions prepared from 10′000 DMSO stock solutions. The samples were assessed for mortality 6 days after placing seedlings in test solutions.

[3] = tested on: Myzus persicae (Green Peach Aphid); assay: Example B5: Myzus persicae, sprayed sunflower leaf discs; settings: foliar, 144 h, application rate of 200 ppm, mixed ages, 6 days after infestation
Method: Example B5: Myzus persicae (Green Peach Aphid)
Sunflower leaf discs were placed on agar in a 24-well microtiter plate and sprayed with aqueous test solutions prepared from 10′000 ppm DMSO stock solutions. After drying, the leaf discs were infested with an aphid population of mixed ages. The samples were assessed for mortality 6 days after infestation.

[4] = tested on: Spodoptera littoralis (Egyptian Cotton Leaf Worm); assay: Example B1: Spodoptera littoralis, sprayed cotton leaf discs; settings: foliar, 72 h, application rate of 200 ppm, cotton leaf discs, L1 larvae, 3 days after infestation, read-out: control (at least one of mortality, anti-feedant effect, growth inhibition)
Method: Example B1: Spodoptera littoralis (Egyptian Cotton Leaf Worm)
Cotton leaf discs were placed on agar in 24-well microtiter plates and sprayed with aqueous test solutions prepared from 10′000 ppm DMSO stock solutions. After drying, the leaf discs were infested with five L1 larvae. The samples were assessed for mortality, anti-feedant effect, and growth inhibition in comparison to untreated samples 3 days after infestation. Control of Spodoptera littoralis by a test sample is when at least one of mortality, anti-feedant effect, and growth inhibition is higher than the untreated sample.

[5] = tested on: Plutella xylostella (Diamond Back Moth); assay: Example B3: Plutella xylostella, artificial diet; settings: 120 h, application rate of 200 ppm, artificial diet, L2 larvae, 5 days after infestation, read-out: effect in at least one of the two categories (mortality or growth inhibition)
Method: Example B3: Plutella xylostella (Diamond Back Moth)
24-well microtiter plates with artificial diet were treated with aqueous test solutions prepared from 10′000 ppm DMSO stock solutions by pipetting. After drying, the plates were infested with L2 larvae (10 to 15 per well). The samples were assessed for mortality and growth inhibition in comparison to untreated samples 5 days after infestation.

[6] = tested on: Spodoptera littoralis (Egyptian Cotton Leaf Worm); assay: Example B2: Spodoptera littoralis, systemic test via lettuce roots in agar; settings: 144 h, test rate of 12.5 ppm, uptake via lettuce roots, 6 days after infestation, read-out: effect in at least one of the three categories (mortality, anti-feedancy, or growth inhibition)
From the text: Example B2: Spodoptera littoralis (Egyptian Cotton Leaf Worm)
Test compounds were applied by pipette from 10′000 ppm DMSO stock solutions into 24-well plates and mixed with agar. Lettuce seeds were placed on the agar and the multi well plate was closed by another plate which contains also agar. After 7 days the roots have absorbed the compound and the lettuce has grown into the lid plate. The lettuce leafs were now cut off into the lid plate. Spodoptera eggs were pipetted through a plastic stencil on a humid gel blotting paper and the plate closed with it. The samples were assessed for mortality, anti-feedant effect and growth inhibition in comparison to untreated samples 6 days after infestation.

[7] = tested on: Euschistus heros (Neotropical Brown Stink Bug); assay: Example B8: Euschistus heros, sprayed soybean leaf; settings: 120 h, application rate of 200 ppm, N-2 nymphs, 5 days after infestation
Method: Example B8: Euschistus heros (Neotropical Brown Stink Bug)
Soybean leaf on agar in 24-well microtiter plates were sprayed with aqueous test solutions prepared from 10′000 ppm DMSO stock solutions. After drying the leaf were infested with N-2 nymphs. The samples were assessed for mortality 5 days after infestation.

[8] = tested on: Bemisia tabaci (Cotton White Fly); assay: Example B7: Bemisia tabaci, sprayed cotton leaf discs; settings: foliar, 144 h, application rate of 200 ppm, adult white flies, 6 days after incubation
Method: Example B7: Bemisia tabaci (Cotton White Fly)
Cotton leaf discs were placed on agar in 24-well microtiter plates and sprayed with aqueous test solutions prepared from 10′000 ppm DMSO stock solutions. After drying the leaf discs were infested with adult white flies. The samples were checked for mortality 6 days after incubation.

[9] = tested on: Tetranychus urticae (Two-Spotted Spider Mite); assay: Example B10: Tetranychus urticae, sprayed bean leaf discs; settings: foliar, 192 h
Method: Example B10: Tetranychus urticae (Two-Spotted Spider Mite)
Bean leaf discs on agar in 24-well microtiter plates were sprayed with aqueous test solutions prepared from 10′000 ppm DMSO stock solutions. After drying the leaf discs were infested with a mite population of mixed ages. The samples were assessed for mortality on mixed population (mobile stages) 8 days after infestation.

[10] = tested on: Frankliniella occidentalis (Western Flower Thrips); assay: Example B12: Frankliniella occidentalis, sprayed sunflower leaf discs; settings: foliar, 168 h, application rate of 200 ppm, mixed ages, 7 days after infestation
Method: Example B12: Frankliniella occidentalis (Western Flower Thrips)
Sunflower leaf discs were placed on agar in 24-well microtiter plates and sprayed with aqueous test solutions prepared from […] stock solutions. After drying the leaf discs were infested with a Frankliniella population of mixed ages. The samples were assessed for mortality 7 days after infestation.

[11] = tested on: Thrips tabaci (Onion Thrips); assay: Example B11: Thrips tabaci, sprayed sunflower leaf discs; settings: foliar, 144 h, application rate of 200 ppm, mixed ages, 6 days after infestation
Method: Example B11: Thrips tabaci (Onion Thrips)
Sunflower leaf discs were placed on agar in 24-well microtiter plates and sprayed with aqueous test solutions prepared from 10′000 ppm DMSO stock solutions. After drying the leaf discs were infested with a thrips population of mixed ages. The samples were assessed for mortality 6 days after infestation.

C=Cc1cnc(-c2nc3cc(C(F)(F)F)ncc3n2C)c(S(=O)(=O)CC)c1 [P3, 2-(3-ethylsulfonyl-5-vinyl-2-pyridyl)-3-methyl-6-(trifluoromethyl)imidazo[4,5-c]pyridine]
≥ 80%: percent effect (mortality or growth inhibition) at 200 ppm [1] | mortality at 24 ppm [2] | mortality at 200 ppm [3] | percent control (mortality, anti-feedant effect or growth inhibition) at 200 ppm [4] | percent effect (mortality or growth inhibition) at 200 ppm [5]

CCS(=O)(=O)c1cc(C2CC2)cnc1-c1nc2cc(C(F)(F)F)ncc2n1C [P7, 2-(5-cyclopropyl-3-ethylsulfonyl-2-pyridyl)-3-methyl-6-(trifluoromethyl)imidazo[4,5-c]pyridine]
≥ 80%: percent effect (mortality or growth inhibition) at 200 ppm [1] | mortality at 24 ppm [2] | percent control (mortality, anti-feedancy or growth inhibition) at 12.5 ppm [6] | mortality at 200 ppm [3] | percent control (mortality, anti-feedant effect or growth inhibition) at 200 ppm [4] | percent effect (mortality or growth inhibition) at 200 ppm [5] | mortality at 200 ppm [7]

CCS(=O)(=O)c1cc(C#Cc2ccc(Cl)cc2)ccc1-c1nc2cc(C(F)(F)F)ncc2n1C [P8]
≥ 80%: percent effect (mortality or growth inhibition) at 200 ppm [1] | percent control (mortality, anti-feedancy or growth inhibition) at 12.5 ppm [6] | mortality at 200 ppm [8] | percent control (mortality, anti-feedant effect or growth inhibition) at 200 ppm [4] | percent effect (mortality or growth inhibition) at 200 ppm [5] | mortality at 200 ppm [7]

CCS(=O)(=O)c1cc(C#CC(F)(F)F)ccc1-c1nc2cc(C(F)(F)F)ncc2n1C [P9]
≥ 80%: percent effect (mortality or growth inhibition) at 200 ppm [1] | mortality at 200 ppm [9]

CCS(=O)(=O)c1cc(C2(C#N)CC2)ccc1-c1nc2cc(C(F)(F)F)ncc2n1C [P15, 1-[3-ethylsulfonyl-4-[3-methyl-6-(trifluoromethyl)imidazo[4,5-c]pyridin-2-yl]phenyl]cyclopropanecarbonitrile]
≥ 80%: percent effect (mortality or growth inhibition) at 200 ppm [1] | mortality at 200 ppm [10] | mortality at 24 ppm [2] | percent control (mortality, anti-feedancy or growth inhibition) at 12.5 ppm [6] | mortality at 200 ppm [9] | mortality at 200 ppm [8] | mortality at 200 ppm [3] | percent control (mortality, anti-feedant effect or growth inhibition) at 200 ppm [4] | percent effect (mortality or growth inhibition) at 200 ppm [5] | mortality at 200 ppm [7]

CCS(=O)(=O)c1cc(C2(C#N)CC2)cnc1-c1nc2cc(C(F)(F)F)ncc2n1C [P16]
≥ 80%: percent effect (mortality or growth inhibition) at 200 ppm [1] | mortality at 200 ppm [10] | mortality at 24 ppm [2] | percent control (mortality, anti-feedancy or growth inhibition) at 12.5 ppm [6] | mortality at 200 ppm [8] | mortality at 200 ppm [3] | percent control (mortality, anti-feedant effect or growth inhibition) at 200 ppm [4] | percent effect (mortality or growth inhibition) at 200 ppm [5] | mortality at 200 ppm [11] | mortality at 200 ppm [7]
